Structures are written as SMILES. Where two headings read alike, the source gives them in different places.

The half-life is the time in which the quantity being followed falls by half. The low end stands for fast loss, the high end for slow loss. The IC50 is the concentration that gives 50% inhibition. What is called inhibition is the share of the control response that was lost under treatment.

Data set [1] in a line: Human liver microsome stability assay (Biological Example 8b). The following applies: liver microsomes, pH 7.4. (Liver microsomes are a subcellular fraction often used to study metabolism.)
Procedure: The reaction was started with addition of excess NADPH (5 mg/mL, 15 μL in 0.1 M potassium phosphate buffer, 1.0 mM EDTA, pH 7.4), the total volume is 45 μL (compound final concentration was 1 μM). […] 50 μL of the supernatant was transferred from each well into a 96-well sample plate containing 50 μL of ultra-pure water (Millipore) for LC-MS/MS analysis.
The target of data set [2] is T1, CYP17 (human testicular microsome) (Homo sapiens, UniProt P05093).
T1 construct: using microsomal fraction from human testis (Celsis Cat #S00110) as the enzyme source; tissue Celsis S00110; host or cells: human testis microsomal fraction
T1 sequence (P05093 1-508): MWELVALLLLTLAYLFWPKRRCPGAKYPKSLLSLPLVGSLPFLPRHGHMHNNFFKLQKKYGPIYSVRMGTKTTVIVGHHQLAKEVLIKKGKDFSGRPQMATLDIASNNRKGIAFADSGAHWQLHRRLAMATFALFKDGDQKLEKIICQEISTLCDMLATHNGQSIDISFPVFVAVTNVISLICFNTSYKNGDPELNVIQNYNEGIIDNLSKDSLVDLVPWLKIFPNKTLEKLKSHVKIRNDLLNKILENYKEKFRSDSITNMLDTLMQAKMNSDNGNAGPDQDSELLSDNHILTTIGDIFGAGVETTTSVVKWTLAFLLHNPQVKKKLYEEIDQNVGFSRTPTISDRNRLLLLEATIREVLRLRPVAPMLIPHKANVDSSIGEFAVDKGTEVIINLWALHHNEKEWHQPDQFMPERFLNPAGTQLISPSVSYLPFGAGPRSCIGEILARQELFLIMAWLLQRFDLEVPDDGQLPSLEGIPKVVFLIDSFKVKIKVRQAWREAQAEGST
The data set is described as follows: CYP17 enzymatic assay (IC50) (Biological Example 4). The class given is biochemical.

For data set [3], the target named is T1, CYP17 (human testicular microsome). Nature of the data set: CYP17 enzymatic assay (% inhibition at 10 nM), version 1 (Biological Example 5). The class given is biochemical.
Data set [4] shares this target. The data set is described as follows: CYP17 enzymatic assay (% inhibition at 1 nM) (Biological Example 12). In kind it is biochemical. Particulars: compound at 1 nM, read-out: CYP17 enzymatic assay % inhibition at 1 nM (Biological Example No. 12).
Where [5] appears, read: 10 nM compound, DHEA by ELISA, read-out: Biological Example No. 5: CYP17 percent inhibition at 10 nM (version 1).
The mark [6] stands for this setting: human testicular microsome, DHEA by ELISA, read-out: Biological Example No. 4: CYP17 enzymatic assay IC50.
Setting [7] is: human testicular microsome, read-out: CYP17 enzymatic assay IC50 (Biological Example No. 4).
Setting [8] is: compound at 10 nM, read-out: CYP17 enzymatic assay % inhibition at 10 nM (Biological Example No. 5).

`C[C@]12CC[C@H](O)CC1=CC[C@@H]1[C@@H]2CC[C@]2(C)C(c3cnccc3F)=CC[C@@H]12` [Cmpd 285] displayed a half-life at 1 μM in data set [1] of 1 to 50 min. In addition, the IC50 in data set [2] (human testicular microsome, read-out: Biological Example No. 4: CYP17 enzymatic assay IC50) was < 11 nM.
In the case of `COc1cncc(C2=CC[C@H]3[C@@H]4CCC5=CC(=O)NCC[C@]5(C)[C@H]4CC[C@]23C)c1` [Compound 53, (5aR,7aS)-8-(5-methoxypyridin-3-yl)-5a,7a-dimethyl-4,5,5a,5b,6,7,7a,8,9,10,10a,10b,11,12-tetradecahydrocyclopenta[5,6]naphtho[2,1-c]azepin-3(2H)-one], the inhibition at 0.01 µM in data set [3] (setting [5]) was in the range of 50 to 80%. Also, the IC50 in data set [2] (setting [6]) was < 11 nM.
For the molecule `COc1cncc(C2=CC=C3[C@@H]4CC=C5C[C@@H](OC(C)=O)CC[C@]5(C)[C@H]4CC[C@]23C)c1` [Compound 80, (3S,10R,13S)-17-(5-methoxypyridin-3-yl)-10,13-dimethyl-2,3,4,7,8,9,10,11,12,13-decahydro-1H-cyclopenta[a]phenanthren-3-yl acetate], in data set [3] (setting [5]), the inhibition at 0.01 µM is > 80%. Besides, the IC50 in data set [2] (setting [6]) was < 11 nM.
In the same order, the values of `Cc1cncc(C2=CC[C@H]3[C@@H]4CC[C@H]5CCOCC[C@]5(C)[C@H]4CC[C@]23C)c1` [Compound 126, 3-((5aS,5bS,7aS,10aS,10bR,12aS)-5a,7a-dimethyl-2,4,5,5a,5b,6,7,7a,10,10a,10b,11,12,12a-tetradecahydro-1H-cyclopenta[5,6]naphtho[1,2-d]oxepin-8-yl)-5-methylpyridine] are 50 to 80% and < 11 nM.
For `CC(=O)O[C@H]1CC[C@@]2(C)[C@@H](CC[C@H]3C4=CC=C(n5ccnc5)[C@@]4(C)CC[C@@H]32)C1` [Compound 169, (5S,8R,9S,10S,13S)-17-(1H-imidazol-1-yl)-10,13-dimethyl-2,3,4,5,6,7,8,9,10,11,12,13-dodecahydro-1H-cyclopenta[a]phenanthren-3-yl acetate], in that order: > 80% and < 11 nM.
Take `C[C@]12CCC3C(CC=C4C[C@H](O)CC[C@@]43C)C1=CC=C2c1cccnc1` (stereo partly drawn) [Compound 199, (3R,10R,13S)-10,13-dimethyl-17-(pyridin-3-yl)-2,3,4,7,8,9,10,11,12,13-decahydro-1H-cyclopenta[a]phenanthren-3-ol]: the inhibition at 0.001 µM in data set [4] is > 50%. The half-life at 1 μM in data set [1] lay within 1 to 50 min. For the same molecule, the IC50 in data set [2] (setting [7]) was < 11 nM.
`C[C@]12CCC3C(CC(O)C45CC4CC[C@]35C)C1=CC=C2c1cccnc1` (stereo partly drawn) [Compound 200, (3aR,5aS)-3a,5a-dimethyl-6-(pyridin-3-yl)-1,1a,2,3,3a,3b,4,5,5a,8b,9,10-dodecahydrocyclopenta[a]cyclopropa[2,3]cyclopenta[1,2-f]naphthalen-10-ol]: in data set [4], the inhibition at 0.001 µM is > 50%. In data set [1], this molecule came in with a half-life at 1 μM of 1 to 50 min. Besides, in data set [2] (setting [7]), the IC50 was < 11 nM.
For `CC(=O)N[C@@H]1CC[C@@]2(C)C(CCC3C2CC[C@]2(C)C(c4cccnc4)=CCC32)C1` (stereo partly drawn) [Compound 215, N-((3R,10S,13S)-10,13-dimethyl-17-(pyridin-3-yl)-2,3,4,5,6,7,8,9,10,11,12,13,14,15-tetradecahydro-1H-cyclopenta[a]phenanthren-3-yl)acetamide], in that order: > 50%, 1 to 50 min and < 11 nM.
For `C[C@]12CC[C@@H](NC(=O)C3CC3)CC1CCC1C2CC[C@]2(C)C(c3cccnc3)=CCC12` (stereo partly drawn) [Compound 220, N-((3R,10S,13S)-10,13-dimethyl-17-(pyridin-3-yl)-2,3,4,5,6,7,8,9,10,11,12,13,14,15-tetradecahydro-1H-cyclopenta[a]phenanthren-3-yl)cyclopropanecarboxamide], the inhibition at 0.001 µM in data set [4] was > 50%. Moreover, the half-life at 1 μM in data set [1] lay in the range of 1 to 50 min. Also, the IC50 in data set [2] (setting [7]) is < 11 nM.
As to `C[C@]12CC[C@@H](NC(=O)C3CC3)CC1=CCC1C2CC[C@]2(C)C(c3cccnc3)=CCC12` (stereo partly drawn) [Compound 224, N-((3R,10R,13S)-10,13-dimethyl-17-(pyridin-3-yl)-2,3,4,7,8,9,10,11,12,13,14,15-dodecahydro-1H-cyclopenta[a]phenanthren-3-yl)cyclopropanecarboxamide], the inhibition at 0.001 µM in data set [4] is > 50%. This molecule also came in with a half-life at 1 μM in data set [1] of 1 to 50 min. Besides, the IC50 in data set [2] (setting [7]) is < 11 nM.
On to `COc1cncc(C2=CC[C@H]3[C@@H]4CC=C5C[C@H](NC(=O)C6CC6)CC[C@]5(C)[C@H]4CC[C@]23C)c1` [Compound 230, N-((3R,10R,13S)-17-(5-methoxypyridin-3-yl)-10,13-dimethyl-2,3,4,7,8,9,10,11,12,13,14,15-dodecahydro-1H-cyclopenta[a]phenanthren-3-yl)cyclopropanecarboxamide], for which the inhibition at 0.001 µM in data set [4] was > 50%. The molecule also showed a half-life at 1 μM in data set [1] of 1 to 50 min. The IC50 in data set [2] (setting [7]) was < 11 nM.
For `CCCC(=O)N[C@@H]1CC[C@@]2(C)C(=CC[C@@H]3[C@@H]2CC[C@]2(C)C(c4cccnc4)=CC[C@@H]32)C1` [Compound 235, N-((3R,10R,13S)-10,13-dimethyl-17-(pyridin-3-yl)-2,3,4,7,8,9,10,11,12,13,14,15-dodecahydro-1H-cyclopenta[a]phenanthren-3-yl)butyramide], in that order: > 50%, 1 to 50 min and < 11 nM.
In the case of `COC1C[C@H]2[C@@H]3CC=C(n4ccnc4)[C@@]3(C)CC[C@@H]2[C@@]2(C)CCC3CC312` (stereo partly drawn) [Compound 236, 1-((3aR,5aS)-10-methoxy-3a,5a-dimethyl-1,1a,2,3,3a,3b,4,5,5a,8,8a,8b,9,10-tetradecahydrocyclopenta[a]cyclopropa[2,3]cyclopenta[1,2-f]naphthalen-6-yl)-1H-imidazole], in data set [3] (setting [8]), the inhibition at 0.01 µM is > 80%. In data set [4], the inhibition at 0.001 µM is 10 to 50%. For the same molecule, the IC50 in data set [2] (setting [7]) was < 11 nM.
On to `C[C@]12CCC(NC(=O)C3CCC3)CC1=CCC1C2CC[C@]2(C)C(n3ccnc3)=CCC12` (stereo partly drawn) [Compound 240, N-((10R,13S)-17-(1H-imidazol-1-yl)-10,13-dimethyl-2,3,4,7,8,9,10,11,12,13,14,15-dodecahydro-1H-cyclopenta[a]phenanthren-3-yl)cyclobutanecarboxamide], for which, in data set [4], the inhibition at 0.001 µM is > 50%. The molecule further had a half-life at 1 μM in data set [1] of 1 to 50 min. For the same molecule, the IC50 in data set [2] (setting [7]) was < 11 nM.
As to `C[C@]1(O)CC[C@@]2(C)C(CCC3C2CC[C@]2(C)C(c4cccnc4)=CCC32)C1` (stereo partly drawn) [Compound 254, (3S,10S,13S)-3,10,13-trimethyl-17-(pyridin-3-yl)-2,3,4,5,6,7,8,9,10,11,12,13,14,15-tetradecahydro-1H-cyclopenta[a]phenanthren-3-ol], the inhibition at 0.001 µM in data set [4] was > 50%. Further, the half-life at 1 μM in data set [1] lay in the range of 1 to 50 min. Moreover, the IC50 in data set [2] is < 11 nM.
For `C[C@]12CC[C@H](O)C[C@@H]1CC[C@@H]1[C@@H]2CC[C@]2(C)C(n3ccnn3)=CC[C@@H]12` [Compound 451, (3S,5S,8R,9S,10S,13S,14S)-10,13-dimethyl-17-(1H-1,2,3-triazol-1-yl)-2,3,4,5,6,7,8,9,10,11,12,13,14,15-tetradecahydro-1H-cyclopenta[a]phenanthren-3-ol], the inhibition at 0.01 µM in data set [3] (setting [8]) is > 80%. Besides, in data set [4], the inhibition at 0.001 µM was > 50%. Moreover, the IC50 in data set [2] (setting [7]) was < 11 nM.

Source of the values: patent US20130252930A1 (BIOMARIN PHARMACEUTICAL INC., priority 2010, published 2013).
